The text below walks through data of publication PMC10282093, “Structural basis of α1A-adrenergic receptor activation and recognition by an extracellular nanobody” (Nature Communications, 2023).

One assay deals with α1ARs over α2ARs. Conditions: cited from earlier work.
The target in assay [1] is T1, α1AAR (Homo sapiens, UniProt P35348).
T1 sequence (P35348 1-466): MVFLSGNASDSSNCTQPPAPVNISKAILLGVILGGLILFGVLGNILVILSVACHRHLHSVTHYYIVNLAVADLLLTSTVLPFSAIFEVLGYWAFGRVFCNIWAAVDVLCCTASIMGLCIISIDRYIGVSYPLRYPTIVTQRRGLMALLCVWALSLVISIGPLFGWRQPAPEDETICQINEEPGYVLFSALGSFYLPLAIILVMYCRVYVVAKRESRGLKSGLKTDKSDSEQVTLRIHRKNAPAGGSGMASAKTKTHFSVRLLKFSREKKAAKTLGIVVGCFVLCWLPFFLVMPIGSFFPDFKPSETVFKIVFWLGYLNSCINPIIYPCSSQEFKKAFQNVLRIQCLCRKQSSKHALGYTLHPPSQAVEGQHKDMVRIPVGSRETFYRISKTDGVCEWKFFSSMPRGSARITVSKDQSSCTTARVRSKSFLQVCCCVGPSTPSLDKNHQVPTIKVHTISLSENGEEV
Description: Glo-sensor cAMP signaling assay with engineered Gsq protein in HEK293T cells. Conditions: HEK-293T.
Description: In brief, pGloSensor™−22F plasmid, receptor plasmid, and Gsq plasmid were transfected into HEK293T cells. At 24 h after transfection, the cells were switched into a CO2-Independent Medium (Gibco) and incubated with GloSensor^TM cAMP reagent. The mixture was then transferred to a 96-well white plate. The 96-well plate is placed at 37 °C in the dark for 1 h, then placed at room temperature in the dark for 1 h before use. […] The result curves were calculated and fitted by GraphPad Prism 9.

The test system of another assay is HEK293T cells (mock). Description: Glo-sensor cAMP assay, mock (negative control). In kind it is cell-based.
The next assay deals with T2, α1DAR (Homo sapiens, UniProt P25100).
T2 construct: made in house; host or cells: Sf9 insect cells (membranes)
T2 sequence (P25100 1-572): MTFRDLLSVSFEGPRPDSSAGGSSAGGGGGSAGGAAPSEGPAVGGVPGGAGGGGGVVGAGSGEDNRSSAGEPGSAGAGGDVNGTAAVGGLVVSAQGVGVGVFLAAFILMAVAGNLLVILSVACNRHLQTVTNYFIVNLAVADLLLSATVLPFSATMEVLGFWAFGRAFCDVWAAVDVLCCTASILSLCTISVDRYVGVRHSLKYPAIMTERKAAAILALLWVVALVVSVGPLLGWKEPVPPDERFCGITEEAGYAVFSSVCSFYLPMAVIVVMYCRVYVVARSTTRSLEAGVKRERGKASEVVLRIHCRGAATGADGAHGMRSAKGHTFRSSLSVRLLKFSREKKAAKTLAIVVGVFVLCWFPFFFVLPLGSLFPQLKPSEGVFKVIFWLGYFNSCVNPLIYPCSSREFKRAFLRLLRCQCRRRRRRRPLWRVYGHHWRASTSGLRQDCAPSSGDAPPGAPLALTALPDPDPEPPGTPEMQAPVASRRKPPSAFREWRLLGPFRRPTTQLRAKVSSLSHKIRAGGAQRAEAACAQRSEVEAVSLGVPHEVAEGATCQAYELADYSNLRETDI
Description: [3H]prazosin radioligand competition binding, Sf9 membranes. Conditions: 1 h. (In general: Displacement assays read how much labelled ligand stays bound in the presence of the test substance.)

For assay [2], the target named is T3, α1AAR (Homo sapiens, UniProt P35348).
T3 sequence (P35348 1-370): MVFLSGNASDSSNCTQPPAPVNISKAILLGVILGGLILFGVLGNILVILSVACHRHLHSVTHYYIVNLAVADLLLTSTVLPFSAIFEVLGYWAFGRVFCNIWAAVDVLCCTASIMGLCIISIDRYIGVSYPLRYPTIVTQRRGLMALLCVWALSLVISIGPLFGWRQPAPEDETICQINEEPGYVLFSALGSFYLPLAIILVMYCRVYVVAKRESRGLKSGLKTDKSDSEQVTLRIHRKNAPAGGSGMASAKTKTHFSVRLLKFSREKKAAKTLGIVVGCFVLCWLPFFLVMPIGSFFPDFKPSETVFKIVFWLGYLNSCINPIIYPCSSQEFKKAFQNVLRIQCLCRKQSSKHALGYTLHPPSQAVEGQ
Description: [3H]prazosin radioligand binding, Sf9 membranes.
Description: (§1) After centrifugation, the pellet was homogenized in binding buffer and used as the membrane fraction in binding assays. […] Receptors were incubated for 1 h at room temperature with various concentrations of ligand in a total volume of 100 µl. After the reaction, the mixture was trapped on Whatman GF/B glass filters. Bound and free radioligands were separated by washing with ice-cold binding buffer. Radioactivity was measured on a MicroBeta2 liquid scintillation counter (PerkinElmer).

Assay [3] has as its target T4, purified α1AAR fused at the C-terminus to an enhanced green fluorescent protein (Homo sapiens, UniProt P35348, N7Q | N13Q | N22Q).
T4 construct: α1A-adrenergic receptor, human; Used in the on-yeast titration with or without 500 μM ligand (oxymetazoline, noradrenaline, tamsulosin, phentolamine); not shown: EGFP, C-terminal, kept
Description: flow cytometry on cells; on-yeast titration as a1, in the presence of 500 μM noradrenaline. To be noted: one partner purified. Background: Flow cytometry measures light scatter and fluorescence of single cells or particles in a stream.

Assay [4] addresses T4, purified α1AAR fused at the C-terminus …. Description: flow cytometry on cells; on-yeast titration as a1, in the presence of 500 μM oxymetazoline. Conditions: one partner purified.

Values joined by “and” are separate entries in the source; they are usually repeats but may differ in a detail not shown here. Equal entries are not always repeated.

Description for HEK293T cells (mock): In brief, […] plasmid, receptor plasmid, and Gsq plasmid were transfected into HEK293T cells. At 24 h after transfection, the cells were switched into a CO2-Independent Medium (Gibco) and incubated with GloSensor^TM cAMP reagent. The mixture was then transferred to a 96-well white plate. The 96-well plate is placed at 37 °C in the dark for 1 h, then placed at room temperature in the dark for 1 h before use. […] The result curves were calculated and fitted by GraphPad Prism 9.
Description for α1DAR: as §1

Consider (+)-cyclazosin, for which, in the assay on α1ARs over α2ARs, the “selectivity for α1ARs over α2ARs” value is reported as 100–1000 fold and the “subtype preference among α1ARs” value is listed as “slight preference for α1BAR over α1AAR”.
In the case of `Cc1cc(C(C)(C)C)c(O)c(C)c1CC1=NCCN1` [Oxymetazoline, oxymetazoline], the activation at 100 µM on α1AAR [1] (read-out: α1AAR activation (Noradrenaline %), Oxy Log[M] -4) came to 79.5%. Moreover, the activation at 10 µM at α1AAR [1] (read-out: α1AAR activation (Noradrenaline %), Oxy Log[M] -5) amounted to 82.8%. The activation at 1 µM at α1AAR [1] (read-out: α1AAR activation (Noradrenaline %), Oxy Log[M] -6) stood at 89.5%. For the same molecule, the activation at 0.1 µM on α1AAR [1] (read-out: α1AAR activation (Noradrenaline %), Oxy Log[M] -7) stood at 76.5%. Moreover, the activation at 0.01 µM at α1AAR [1] (read-out: α1AAR activation (Noradrenaline %), Oxy Log[M] -8) is 64.3%. The activation at 0.001 µM at α1AAR [1] (read-out: α1AAR activation (Noradrenaline %), Oxy Log[M] -9) amounted to 30.7%. In addition, the “cAMP Glo-sensor signal (Noradrenaline %)” value in the assay on HEK293T cells (mock) (Oxy Log[M] -4, listed as Oxy) is 20.5576% and 21.072% and 20.3482%; in the assay with HEK293T cells (mock) (Oxy Log[M] -5, listed as Oxy) it was 16.9742% and 18.9752% and 17.0682%; with HEK293T cells (mock) (Oxy Log[M] -6, listed as Oxy), 11.7764% and 12.3973% and 9.944%; in the assay with HEK293T cells (mock) (Oxy Log[M] -7, listed as Oxy), 5.984% and 4.961% and 5.326%; in the assay with HEK293T cells (mock) (Oxy Log[M] -8, listed as Oxy) it was 5.537% and 5.0478% and 4.209%; in the assay with HEK293T cells (mock) (Oxy Log[M] -9, listed as Oxy), 5.27% and 4.932% and 5.142%. Besides, the “cAMP Glo-sensor signal (Noradrenaline %)” value was 5.3547% and 4.562% and 4.147% in the assay with HEK293T cells (mock) (Oxy Log[M] -10, listed as Oxy); 5.371% and 4.924% and 4.109% in the assay on HEK293T cells (mock) (Oxy Log[M] -11, listed as Oxy). Also, the remaining binding at 100 µM on α1DAR (oxymetazoline Log[M] -4) is 40%. Further, on α1DAR (oxymetazoline Log[M] -5), the remaining binding at 10 µM worked out at 78%. In addition, the remaining binding at 1 µM on α1DAR (oxymetazoline Log[M] -6) was 104%. In addition, the remaining binding at 0.01 µM on α1DAR (oxymetazoline Log[M] -8) came out at 101%. Further, the remaining binding at 0.001 µM on α1DAR (oxymetazoline Log[M] -9) turned out to be 85.5%. On α1DAR (oxymetazoline Log[M] -10), the remaining binding at 0.0001 µM was found to be 96.6%. In addition, the “[3H]prazosin binding” value at α1AAR [2] (Fig 1c, oxymetazoline Log[M] -4) is 10.9281% and 8.737% and 2.765%; at α1AAR [2] (Fig 1c, oxymetazoline Log[M] -5), 28.5329% and 15.8053% and 21.6214%; on α1AAR [2] (Fig 1c, oxymetazoline Log[M] -6), 48.3547% and 40.7911% and 47.5462%; on α1AAR [2] (Fig 1c, oxymetazoline Log[M] -7) it was 71.541% and 85.4423% and 88.1547%; on α1AAR [2] (Fig 1c, oxymetazoline Log[M] -8) it was 80.5129% and 95.3793% and 78.3743%; on α1AAR [2] (Fig 1c, oxymetazoline Log[M] -9), 85.0772% and 90.4238% and 92.4582%. For the same molecule, the “[3H]prazosin binding” value on α1AAR [2] (Fig 1c, oxymetazoline Log[M] -10) was 89.85% and 99.1089% and 88.2591%; at α1AAR [2] (SupFig 3a, oxymetazoline Log[M] -4), 12.1047% and 12.5905% and 4.0484%; at α1AAR [2] (SupFig 3a, oxymetazoline Log[M] -5), 17.0033% and 16.477% and 26.9623%; at α1AAR [2] (SupFig 3a, oxymetazoline Log[M] -6), 53.0745% and 43.3179% and 35.5045%; at α1AAR [2] (SupFig 3a, oxymetazoline Log[M] -7) it was 77.4054% and 89.6316% and 82.5874%; on α1AAR [2] (SupFig 3a, oxymetazoline Log[M] -8), 97.364% and 96.109% and 85.3403%. Besides, the “[3H]prazosin binding” value at α1AAR [2] (SupFig 3a, oxymetazoline Log[M] -9) was 100.805% and 102.506% and 100.765%; at α1AAR [2] (SupFig 3a, oxymetazoline Log[M] -10) it was 92.5464% and 102.06% and 94.2468%; on α1AAR [2] (SupFig 3a, oxymetazoline Log[M] -11), 99.0644% and 106.675% and 101.331%; at α1AAR [2] (SupFig 5b, Oxy Log[M] -4, listed as Oxy), 3.711% and 5.398% and 5.024%; on α1AAR [2] (SupFig 5b, Oxy Log[M] -5, listed as Oxy), 10.3036% and 9.182% and 6.784%; on α1AAR [2] (SupFig 5b, Oxy Log[M] -6, listed as Oxy), 25.9506% and 41.5063% and 33.8379%. Besides, the “[3H]prazosin binding” value is 92.3589% and 77.9429% and 95.5776% at α1AAR [2] (SupFig 5b, Oxy Log[M] -7, listed as Oxy); 101.851% and 78.107% and 77.5873% at α1AAR [2] (SupFig 5b, Oxy Log[M] -8, listed as Oxy); 102.225% and 74.633% and 114.735% at α1AAR [2] (SupFig 5b, Oxy Log[M] -9, listed as Oxy); 96.3983% and 104.267% and 110.313% at α1AAR [2] (SupFig 5b, Oxy Log[M] -10, listed as Oxy); 110.176% and 107.431% and 115.738% on α1AAR [2] (SupFig 5b, Oxy Log[M] -11, listed as Oxy); 2.395% and 8.488% and 7.551% on α1AAR [2] (oxymetazoline Log[M] -4, + 5 μM Nb29). Besides, the “[3H]prazosin binding” value at α1AAR [2] (oxymetazoline Log[M] -5, + 5 μM Nb29) is 13.6695% and 16.4815% and 14.4506%; on α1AAR [2] (oxymetazoline Log[M] -6, + 5 μM Nb29), 33.0932% and 34.9679% and 29.0314%; at α1AAR [2] (oxymetazoline Log[M] -7, + 5 μM Nb29), 67.0717% and 63.0359% and 61.005%; at α1AAR [2] (oxymetazoline Log[M] -8, + 5 μM Nb29) it was 88.2659% and 86.6777% and 81.6265%; on α1AAR [2] (oxymetazoline Log[M] -9, + 5 μM Nb29) it was 85.0373% and 101.154% and 98.9412%; at α1AAR [2] (oxymetazoline Log[M] -10, + 5 μM Nb29), 98.863% and 104.175% and 100.087%.

B1: Nb29 displayed on yeast cells (VHH)
VHH: QVQLQESGGGLVQAGGSLRLSCAASGNISAHWKMGWYRQAPGKEREFVAGIGYANTNYADSVKGRFTISRDNAKNTVYLQMNSLKPEDTAVYYCAAYSYYRDHSYWGQGTQVTVSS
notes: Expression was detected with an anti-HA antibody; also called Nb29-expressing yeast cells
For B1, the Kd – broadly, the free concentration of one partner at which half of the binding sites on the other are occupied at equilibrium, for simple one-to-one binding – in assay [3] was found to be 38.8 nM; in assay [4], 37.6 nM.
